In patent US20250263436A1, “BROAD-SPECTRUM ANTIVIRAL DRUG FOR ENTEROVIRUS, AND APPLICATION” (WUHAN INSTITUTE OF VIROLOGY, CHINESE ACADEMY OF SCIENCES, priority 2020, published 2025):
Several values for one entry are separate records, joined by “and”; a condition that tells them apart may be missing. Equal values may be shown once.

Legend:
[1] = Cytotoxicity of polypeptides in Vero cells (CCK-8); assay type: cell-based; conditions: for CC50 at 24 h: African green monkey, Table 1 (Vero cells); for viability at 24 h, 0.073242 µM: polypeptide 0.073242 μM; for viability at 24 h, 0.146484 µM: polypeptide 0.146484 μM; for viability at 24 h, 0.292969 µM: polypeptide 0.292969 μM; for viability at 24 h, 0.585938 µM: polypeptide 0.585938 μM; for viability at 24 h, 1.17188 µM: polypeptide 1.171875 μM; for viability at 24 h, 2.34375 µM: polypeptide 2.34375 μM; for viability at 24 h, 4.6875 µM: polypeptide 4.6875 μM; for viability at 24 h, 9.375 µM: polypeptide 9.375 μM; for viability at 24 h, 18.75 µM: polypeptide 18.75 μM; for viability at 24 h, 150 µM: polypeptide 150 μM
Description: (§1) Therefore, this standard was testified by cytotoxicity assay, and the cells without any treatment were used as a control group.
(§2) (1) Vero cells were plated in a 96-well plate at 100 μL per well.
(§3) (2) When the cells grew to a confluence of 70%-80%, the DMEM medium containing 10% serum was replaced with a DMEM medium containing 2% serum, and a certain concentration gradient of polypeptide RQ or LQ or SQ was added, so that the final concentrations of the polypeptide in the wells were 0.073242 μM, 0.146484 μM, 0.292969 μM, 0.585938 μM, 1.171875 μM, 2.34375 μM, 4.6875 μM, 9.375 μM, 18.75 μM, 37.5 μM, 75 μM and 150 μM, respectively.
(§4) (3) The samples were collected 24 h after the addition of the polypeptide, and then 10 μL of live cell detection reagent CCK-8 was added to each well and mixed well.
(§5) (4) The plate was placed at 37° C. for 2 h.
(§6) (5) The absorbance value at OD450 was detected by a microplate reader.
(§7) The CC50 of each polypeptide was calculated taking the cell viability of untreated cells as 100%.

Vero cells = test: Cytotoxicity of polypeptides in Vero cells (CCK-8); assay type: cell-based; conditions: Vero cells, 24 h
Description: as §1, §2, §3, §4, §5, §6, §7

EV71 [2] = test: Inhibition of EV71 in Vero cells (viral RNA, qRT-PCR); assay type: cell-based, enterovirus 71 (EV71); conditions: anti-EV71 in Vero cells
Description: (§8) (1) Different cells were plated in a 24-well plate.
(§9) (2) When the cells grew to a confluence of 70%-80%, the DMEM medium containing 10% serum was replaced with a DMEM medium containing 2% serum (the DMEM medium containing 2% serum was added in each well at an amount of 0.5 mL), and 5 μL of EV71 virus of 1×10^6 PFU/mL was added to each well.
(§10) (3) After 1 h, different polypeptides (RQ or control TAT) with final concentrations of 0.3125 μM, 0.625 μM, 1.25 μM, 2.5 μM, and 5 μM were added respectively. The group without polypeptide added was used as a control.
(§11) (4) The samples were collected 24 h after the infection of EV71 virus, and RNA was extracted with the total RNA extraction kit.
(§12) (5) The supernatant was discarded, then 350 μL of TRK lysate was added to each well, and the plate was put on a shaker for 5 min.
(§13) (6) 350 μL of 70% ethanol (DEPC) was added to each well, and then the plate was put on a shaker for 5 min.
(§14) (7) The solution in each well was transferred to a RNA extraction column for 1 min of centrifugation at 12000 g.
(§15) (8) The solution obtained in the recovery tube was reloaded on the column again for 1 min of centrifugation at 12000 g.
(§16) (9) RNA washing buffer 1 was added in the column for 30 s of centrifugation at 12000 g.
(§17) (10) RNA washing buffer 2 was added in the column for 1 min of centrifugation at 12000 g.
(§18) (11) Step (10) was repeated.
(§19) (12) The column alone was centrifuged at 12000 g for 2 min to completely remove the residual RNA washing buffer.
(§20) (13) 50 μL of DEPC water was added to the column for 2 min of centrifugation at 12000 g.
(§21) (14) 2 μL of RNA sample was subjected to a fluorescence quantitative experiment using the one step qRT-PCR kit.
(1) Vero E6 cells were plated in a 24-well plate.
(3) After 1 h, different polypeptides (LQ or SQ) with final concentrations of 0.3125 μM, 0.625 μM, 1.25 μM, 2.5 μM, and 5 μM were added respectively. The group without polypeptide added was used as a control.

EV71 [3] = test: Inhibition of EV71 in RD cells (viral RNA, qRT-PCR); assay type: cell-based, enterovirus 71 (EV71); conditions: EV71, 24 h after infection
Description: as §8, §9, §10, §11, §12, §13, §14, §15, §16, §17, §18, §19, §20, §21
(3) After 1 h, different polypeptides (RQ or control TAT) with final concentrations of 0.3125 μM, 0.625 μM, 1.25 μM, 2.5 μM and 5 μM were added respectively. The group without polypeptide added was used as a control.

[4] = Vero cells, 24 h, read-out: Cell viability (%)

## CC[C@H](C)[C@H](NC(=O)[C@H](C)NC(=O)[C@H](CO)NC(=O)[C@H](CCCNC(=N)N)NC(=O)[C@H](CC(N)=O)NC(=O)[C@H](CC(N)=O)NC(=O)[C@H](Cc1ccc(O)cc1)NC(=O)[C@H](CCC(=O)O)NC(=O)[C@H](CCCNC(=N)N)NC(=O)[C@@H](NC(=O)[C@H](CC(C)C)NC(=O)CNC(=O)[C@H](CO)NC(=O)CNC(=O)[C@H](CCCNC(=N)N)NC(=O)[C@H](CCCNC(=N)N)NC(=O)[C@H](CCCNC(=N)N)NC(=O)[C@H](CCC(N)=O)NC(=O)[C@H](CCCNC(=N)N)NC(=O)[C@H](CCCNC(=N)N)NC(=O)[C@H](CCCCN)NC(=O)[C@H](CCCCN)NC(=O)[C@H](CCCNC(=N)N)NC(=O)CNC(=O)[C@@H](N)Cc1ccc(O)cc1)[C@@H](C)CC)C(=O)NCC(=O)N[C@@H](CC(N)=O)C(=O)N[C@H](C(=O)N[C@H](C(=O)N[C@@H](CCC(=O)O)C(=O)N[C@@H](C)C(=O)N[C@@H](CC(C)C)C(=O)N[C@@H](Cc1ccccc1)C(=O)N[C@@H](CCC(N)=O)C(=O)O)[C@@H](C)CC)[C@@H](C)O [LQ]
[1]
  CC50 at 24 h: > 150 µM
[1]; [4]
  viability at 24 h, 0.073242 µM: 100%
  viability at 24 h, 0.146484 µM: 103%
  viability at 24 h, 0.292969 µM: 112%
  viability at 24 h, 0.585938 µM: 110%
  viability at 24 h, 1.17188 µM: 111%
  viability at 24 h, 2.34375 µM: 105%
  viability at 24 h, 4.6875 µM: 111%
  viability at 24 h, 9.375 µM: 114%
  viability at 24 h, 18.75 µM: 109%
  viability at 24 h, 150 µM: 72.2%
[1]; Vero cells, polypeptide 37.5 μM, 24 h, read-out: Cell viability (%)
  viability at 24 h, 37.5 µM: 117%
Vero cells; polypeptide 0.073242 μM
  Cell viability (%): 105.9% and 97.02%
Vero cells; polypeptide 0.146484 μM
  Cell viability (%): 104.7744% and 101.9913%
Vero cells; polypeptide 0.292969 μM
  Cell viability (%): 106.5265% and 104.7619%
Vero cells; polypeptide 0.585938 μM
  Cell viability (%): 110.5563% and 108.0087%
Vero cells; polypeptide 1.171875 μM
  Cell viability (%): 115.1555% and 110.4762%
Vero cells; polypeptide 2.34375 μM
  Cell viability (%): 106.3075% and 107.1861%
Vero cells; polypeptide 4.6875 μM
  Cell viability (%): 104.8489% and 112.5108%
Vero cells; polypeptide 9.375 μM
  Cell viability (%): 119.5795% and 113.5931%
Vero cells; polypeptide 18.75 μM
  Cell viability (%): 115.6373% and 110.3247%
Vero cells; polypeptide 37.5 μM
  Cell viability (%): 99.1853% and 97.1429%
Vero cells; polypeptide 75 μM
  Cell viability (%): 108.2318% and 87.6084% and 90.8658%
Vero cells; polypeptide 150 μM
  Cell viability (%): 83.0968% and 80.9091%
EV71 [2]
  IC50: 2.26 µM

## MBP-CVA16 2C protein
Polypeptide RQ
  helicase activity (unwinding of HEX-labeled dsRNA substrate, gel electrophoresis): RQ inhibited the helicase activity of CVA16 2C in a dose-dependent manner

## AC-qflaeitngiasrnnyergsgrrrqrrkkrgy-NH2 [RQ-DRI]
EV71 [3]; polypeptide 0.3125 μM
  Percentage of viral RNA in RD cells (%): 90.2% and 150.7832% and 85.04%
EV71 [3]; polypeptide 0.625 μM
  Percentage of viral RNA in RD cells (%): 113.2834% and 92.13% and 108.0728%
EV71 [3]; polypeptide 1.25 μM
  Percentage of viral RNA in RD cells (%): 93.12% and 79.48% and 58.29%
EV71 [3]; polypeptide 2.5 μM
  Percentage of viral RNA in RD cells (%): 24.4% and 38.77% and 23.45%
EV71 [3]; polypeptide 5 μM
  Percentage of viral RNA in RD cells (%): 21.2764% and 19.04% and 17.19%

## CC[C@H](C)[C@H](NC(=O)[C@H](C)NC(=O)[C@H](CO)NC(=O)[C@H](CCCNC(=N)N)NC(=O)[C@H](CC(N)=O)NC(=O)[C@H](CC(N)=O)NC(=O)[C@H](Cc1ccc(O)cc1)NC(=O)[C@H](CCC(=O)O)NC(=O)[C@H](CCCNC(=N)N)NC(=O)[C@@H](NC(=O)[C@H](CC(C)C)NC(=O)[C@H](CCC(=O)O)NC(=O)[C@H](CO)NC(=O)CNC(=O)[C@H](CO)NC(=O)CNC(=O)[C@H](CCCNC(=N)N)NC(=O)[C@H](CCCNC(=N)N)NC(=O)[C@H](CCCNC(=N)N)NC(=O)[C@H](CCC(N)=O)NC(=O)[C@H](CCCNC(=N)N)NC(=O)[C@H](CCCNC(=N)N)NC(=O)[C@H](CCCCN)NC(=O)[C@H](CCCCN)NC(=O)[C@H](CCCNC(=N)N)NC(=O)CNC(=O)[C@@H](N)Cc1ccc(O)cc1)[C@@H](C)CC)C(=O)NCC(=O)N[C@@H](CC(N)=O)C(=O)N[C@H](C(=O)N[C@H](C(=O)N[C@@H](CCC(=O)O)C(=O)N[C@@H](C)C(=O)N[C@@H](CC(C)C)C(=O)N[C@@H](Cc1ccccc1)C(=O)N[C@@H](CCC(N)=O)C(=O)O)[C@@H](C)CC)[C@@H](C)O [SQ]
[1]
  CC50 at 24 h: 134 µM
[1]; [4]
  viability at 24 h, 0.073242 µM: 104%
  viability at 24 h, 0.146484 µM: 98%
  viability at 24 h, 0.292969 µM: 101%
  viability at 24 h, 0.585938 µM: 94.4%
  viability at 24 h, 1.17188 µM: 90.1%
  viability at 24 h, 2.34375 µM: 96.6%
  viability at 24 h, 4.6875 µM: 105%
  viability at 24 h, 9.375 µM: 99.5%
  viability at 24 h, 18.75 µM: 106%
  viability at 24 h, 150 µM: 70%
Vero cells; polypeptide 0.073242 μM
  Cell viability (%): 103.4468% and 96.07%
Vero cells; polypeptide 0.146484 μM
  Cell viability (%): 94.606% and 92.7401%
Vero cells; polypeptide 0.292969 μM
  Cell viability (%): 103.1624% and 100.4524%
Vero cells; polypeptide 0.585938 μM
  Cell viability (%): 103.9959% and 100.6225%
Vero cells; polypeptide 1.171875 μM
  Cell viability (%): 94.07% and 98.81%
Vero cells; polypeptide 2.34375 μM
  Cell viability (%): 101.1325% and 99.03%
Vero cells; polypeptide 4.6875 μM
  Cell viability (%): 106.7734% and 95.3706%
Vero cells; polypeptide 9.375 μM
  Cell viability (%): 102.9859% and 103.7701%
Vero cells; polypeptide 18.75 μM
  Cell viability (%): 100.481% and 90.25%
Vero cells; polypeptide 37.5 μM
  Cell viability (%): 100.7644% and 90.65% and 80.6%
Vero cells; polypeptide 75 μM
  Cell viability (%): 90.36% and 95.75% and 70.31%
Vero cells; polypeptide 150 μM
  Cell viability (%): 80.35% and 60.9948%
EV71 [2]
  IC50: 10.3 µM
